Measurements as given in PubChem BioAssay (NCI).
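GI50 = concentration required for 50% inhibition of growth. The concentration for full growth arrest is given as TGI.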

Key:
Test in all cases: growth of human tumour cells (NCI), 384-well format; in the data active = GI50 below about 0.43 µM; inactive = the rest
[1] = test system: A549 NSCLC
[2] = test system: COLO 205 colon
[3] = test system: BT-549 breast
[4] = test system: SNB-19 CNS
[5] = test system: MDA-MB-231 breast
[6] = test system: NCI-H522 lung
[7] = test system: NCI-H460 NSCLC
[8] = test system: TK-10 renal
[9] = test system: M14 melanoma
[10] = test system: SK-MEL-28 melanoma
[11] = test system: MALME-3M melanoma
[12] = test system: IGROV1 ovarian
[13] = test system: RPMI-8226 leukemia
[14] = test system: SN12C renal
[15] = test system: MCF7 breast
[16] = test system: MDA-MB-468 breast
[17] = test system: SF-539 CNS
[18] = test system: EKVX NSCLC
[19] = test system: HCT-15 colon
[20] = test system: LOX IMVI melanoma
[21] = test system: ACHN renal
[22] = test system: HS 578T breast
[23] = test system: HCT-116 colon
[24] = test system: HOP-62 NSCLC
[25] = test system: PC-3 prostate
[26] = test system: SK-OV-3 ovarian
[27] = test system: NCI-H322M lung
[28] = test system: SW-620 colon
[29] = test system: SNB-75 CNS
[30] = test system: OVCAR-4 ovarian
[31] = test system: K-562 leukemia
[32] = test system: MOLT-4 leukemia
[33] = test system: UO-31 renal
[34] = test system: NCI/ADR-RES ovarian
[35] = test system: HOP-92 NSCLC
[36] = test system: CAKI-1 renal
[37] = test system: SR leukemia
[38] = test system: SF-295 CNS
[39] = test system: CCRF-CEM leukemia
[40] = test system: 786-0 renal
[41] = test system: DU-145 prostate
[42] = test system: HT29 colon
[43] = test system: RXF 393 renal
[44] = test system: NCI-H23 lung
[45] = test system: MDA-MB-435 melanoma
[46] = test system: UACC-62 melanoma
[47] = test system: HL-60(TB) leukemia
[48] = test system: KM12 colon
[49] = test system: OVCAR-8 ovarian
[50] = test system: T-47D breast
[51] = test system: SF-268 CNS
[52] = test system: U251 glioblastoma
[53] = test system: HCC-2998 colon
[54] = test system: OVCAR-3 ovarian
[55] = test system: SK-MEL-5 melanoma
[56] = test system: A498 renal
[57] = test system: UACC-257 melanoma
[58] = test system: NCI-H226 lung

O=C(NCc1ccc(S(=O)(=O)c2cc(F)cc(F)c2)cc1)c1ccc2nccn2c1
10.2 nM: TGI [42]
25.7 nM: TGI [20]
12.4 nM: TGI [18]
18.3 nM: TGI [5]
26.3 nM: TGI [7]
43.5 nM: TGI [35]
< 10 nM: TGI [2] | TGI [3] | TGI [4] | TGI [6] | TGI [8] | TGI [9] | TGI [10] | TGI [12] | TGI [13] | TGI [14] | TGI [15] | TGI [16] | TGI [17] | TGI [19] | TGI [21] | TGI [22] | TGI [23] | TGI [24] | TGI [25] | TGI [26] | TGI [27] | TGI [28] | TGI [29] | TGI [31] | TGI [32] | TGI [33] | TGI [34] | TGI [36] | TGI [37] | TGI [38] | TGI [39] | TGI [40] | TGI [41] | TGI [43] | TGI [44] | TGI [45] | TGI [46] | TGI [47] | TGI [48] | TGI [49] | TGI [50] | TGI [51] | TGI [52] | TGI [53] | TGI [54] | TGI [55]
20.3 nM: TGI [1]
27.4 nM: TGI [11]
11.4 nM: TGI [30]
active: GI50 [1] < 10 nM | GI50 [2] < 10 nM | GI50 [3] < 10 nM | GI50 [4] < 10 nM | GI50 [5] < 10 nM | GI50 [6] < 10 nM | GI50 [7] 11.6 nM | GI50 [8] < 10 nM | GI50 [9] < 10 nM | GI50 [10] < 10 nM | GI50 [11] < 10 nM | GI50 [12] < 10 nM | GI50 [13] < 10 nM | GI50 [14] < 10 nM | GI50 [15] < 10 nM | GI50 [16] < 10 nM | GI50 [17] < 10 nM | GI50 [18] < 10 nM | GI50 [19] < 10 nM | GI50 [20] < 10 nM | GI50 [21] < 10 nM | GI50 [22] < 10 nM | GI50 [23] < 10 nM | GI50 [24] < 10 nM | GI50 [25] < 10 nM | GI50 [26] < 10 nM | GI50 [27] < 10 nM | GI50 [28] < 10 nM | GI50 [29] < 10 nM | GI50 [30] < 10 nM | GI50 [31] < 10 nM | GI50 [32] < 10 nM | GI50 [33] < 10 nM | GI50 [34] < 10 nM | GI50 [35] 20.4 nM | GI50 [36] < 10 nM | GI50 [37] < 10 nM | GI50 [38] < 10 nM | GI50 [39] < 10 nM | GI50 [40] < 10 nM | GI50 [41] < 10 nM | GI50 [42] < 10 nM | GI50 [43] < 10 nM | GI50 [44] < 10 nM | GI50 [45] < 10 nM | GI50 [46] < 10 nM | GI50 [47] < 10 nM | GI50 [48] < 10 nM | GI50 [49] < 10 nM | GI50 [50] < 10 nM | GI50 [51] < 10 nM | GI50 [52] < 10 nM | GI50 [53] < 10 nM | GI50 [54] < 10 nM | GI50 [55] < 10 nM

CN1CCN(c2ccc(Nc3ncc4cc(C#N)c(=O)n(C5CCCC5)c4n3)cc2)CC1
22900 nM: TGI [21]
12600 nM: TGI [51]
55500 nM: TGI [48]
28000 nM: TGI [28]
1000 nM: TGI [37]
11100 nM: TGI [23]
4310 nM: TGI [16]
19800 nM: TGI [38]
> 100000 nM: TGI [2] | TGI [4] | TGI [5] | TGI [9] | TGI [30] | TGI [31] | TGI [42] | TGI [50]
29900 nM: TGI [26]
4430 nM: TGI [14]
active: GI50 [7] 271 nM | GI50 [13] 79.8 nM | GI50 [14] 271 nM | GI50 [15] 299 nM | GI50 [23] 372 nM | GI50 [32] 141 nM | GI50 [36] 259 nM | GI50 [39] 365 nM | GI50 [47] 94.9 nM
23600 nM: TGI [46]
3680 nM: TGI [15]
1720 nM: TGI [39]
66900 nM: TGI [45]
3950 nM: TGI [22]
32100 nM: TGI [57]
29000 nM: TGI [35]
3090 nM: TGI [36]
22400 nM: TGI [52]
7460 nM: TGI [56]
92900 nM: TGI [11]
26600 nM: TGI [55]
14600 nM: TGI [24]
12400 nM: TGI [8]
37200 nM: TGI [49]
818 nM: TGI [13]
14400 nM: TGI [54]
34900 nM: TGI [34]
18700 nM: TGI [44]
16100 nM: TGI [1]
46500 nM: TGI [25]
11000 nM: TGI [7] | TGI [12]
18500 nM: TGI [53]
532 nM: TGI [32]
12200 nM: TGI [3]
1380 nM: TGI [47]
13800 nM: TGI [58]
27900 nM: TGI [18]
14800 nM: TGI [33]
13200 nM: TGI [17]
13900 nM: TGI [20]
18900 nM: TGI [6]
15400 nM: TGI [19]
3140 nM: TGI [43]
72100 nM: TGI [10]
28200 nM: TGI [40]
25800 nM: TGI [41]
inactive: GI50 [1] 1040 nM | GI50 [2] 981 nM | GI50 [3] 1750 nM | GI50 [4] 3170 nM | GI50 [5] 718 nM | GI50 [6] 1200 nM | GI50 [8] 1320 nM | GI50 [9] 1070 nM | GI50 [10] 8460 nM | GI50 [11] 535 nM | GI50 [12] 674 nM | GI50 [56] 1090 nM | GI50 [16] 1890 nM | GI50 [17] 2230 nM | GI50 [18] 6550 nM | GI50 [19] 837 nM | GI50 [20] 799 nM | GI50 [21] 521 nM | GI50 [22] 1420 nM | GI50 [24] 2430 nM | GI50 [25] 819 nM | GI50 [26] 1040 nM | GI50 [27] 2220 nM | GI50 [28] 728 nM | GI50 [29] 1800 nM | GI50 [30] 27100 nM | GI50 [31] 462 nM | GI50 [33] 551 nM | GI50 [34] 8590 nM | GI50 [35] 2030 nM | GI50 [37] 498 nM | GI50 [38] 632 nM | GI50 [40] 755 nM | GI50 [41] 1560 nM | GI50 [42] 1180 nM | GI50 [43] 727 nM | GI50 [44] 1230 nM | GI50 [45] 3370 nM | GI50 [46] 1400 nM | GI50 [48] 1020 nM | GI50 [49] 4650 nM | GI50 [57] 10800 nM | GI50 [50] 7400 nM | GI50 [51] 1650 nM | GI50 [52] 1600 nM | GI50 [53] 1800 nM | GI50 [54] 3100 nM | GI50 [55] 10900 nM | GI50 [58] 457 nM
10900 nM: TGI [29]
47800 nM: TGI [27]
